These results are taken from patent US5840711A, “Compositions containing lithium inorganic salts and anti-viral drugs and method of treating viral infections such as acquired immunodeficiency syndrome” (priority 1997, dated 1998).

“Also recorded” adds a separate entry of the source.

For data set [1], the system named is normal bone marrow cells. Put plainly: AZT toxicity on normal bone marrow cells in vitro, overall. The settings on record: normal bone marrow cells with AZT.
Protocol: These studies were performed in vitro with normal bone marrow cells incubated in the presence of AZT and Li-GLA.
Data set [2] concerns herpes simplex virus. Particulars: in vitro; cited from earlier work.
For data set [3], the system named is normal bone marrow cells. The settings on record: in vitro with normal bone marrow cells (previous work; b10 also in vivo mice); cited from earlier work.
Data set [4] has as its system BFU-E (Erythroid) of normal bone marrow cells. Put plainly: AZT bone marrow toxicity in vitro, BFU-E colony formation. Format: cell-based. The source says:
(§1) This is a standard practice.

For data set [5], the system named is non-infected H9 cells. The settings on record: 4 days incubation in vitro. The source says:
Lithium gamma linolenate (LiGLA) for this study was obtained from Enfamol, Kentville, Nova Scotia, Canada.

For data set [6], the system named is CFU-Meg (Megakaryocyte) of normal bone marrow cells. Put plainly: AZT bone marrow toxicity in vitro, CFU-Meg colony formation. It counts as cell-based.
Excerpt: as §1

For data set [7], the system named is CFU-GM (Myeloid) of normal bone marrow cells. Put plainly: AZT bone marrow toxicity in vitro, CFU-GM colony formation. Format: cell-based.
Excerpt: as §1

The test system of data set [8] is H9 cells that are chronically infected with HIV. As to the kind of experiment: LiGLA 4 days incubation in vitro with H9 cells chronically infected with HIV. Format: cell-based.

For the compound `[Cl-].[Li+]` [lithium chloride], the “Effect on AZT toxicity / colony formation” value in data set [1] is “there is a reduction in AZT toxicity; however, the values never reach the level of the normal control; also recorded: reduced AZT toxicity but was not effective in increasing cell growth and colony formation”. Also, the “Concentration inhibiting herpes simplex virus replication” value in data set [2] is 5 to 30 mM. Further, the “Myelosuppression and marrow toxicity of AZT” value in data set [3] was “reduced the myelosuppression and marrow toxicity of AZT significantly”.

In the case of `CCCCC/C=C\C/C=C\C/C=C\CCCCC(=O)[O-].[Li+]` [Li-GLA, lithium gamma-linolenate], the “BFU-E (Erythroid) colonies” value came out at 50 ± 4 in data set [4] (Li-GLA 10 μg/ml), 44 ± 4 in data set [4] (Li-GLA 15 μg/ml) and 31 ± 3 in data set [4] (Li-GLA 20 μg/ml). Moreover, the H9 cells killed amounted to 20% in data set [5] and 90% in data set [8]. Moreover, the “CFU-Meg (Megakaryocyte) colonies” value worked out at 32.0 ± 3 in data set [6] (Li-GLA 10 μg/ml), 28.0 ± 4 in data set [6] (Li-GLA 15 μg/ml) and 24.0 ± 3 in data set [6] (Li-GLA 20 μg/ml). Besides, the “CFU-GM (Myeloid) colonies” value is 66.5 in data set [7] (Li-GLA 10 μg/ml), 55.5 in data set [7] (Li-GLA 15 μg/ml) and 45.0 in data set [7] (Li-GLA 20 μg/ml).
